What was measured:
[1] = test system: HIV-1 E138K mutant strain; experiment: microbe, parasite or virus in culture; assay type: cell-based; settings: for SI E138K: CC50/EC50; for EC50: Human immunodeficiency virus 1, MT4, read-out: EC50 E138K; for RF E138K: ratio of EC50 (resistant viral strain)/EC50 (wild-type viral strain)
[2] = test system: HIV-1 RES056 (K103N + Y181C) double-mutant strain; experiment: microbe, parasite or virus in culture; assay type: cell-based; settings: for SI RES056: CC50/EC50; for EC50: Human immunodeficiency virus 1, MT4, read-out: EC50 RES056; for RF RES056: ratio of EC50 (resistant viral strain)/EC50 (wild-type viral strain)
[3] = Cytotoxicity in mock-infected MT-4 cell cultures, MTT method; settings: human, mock-infected MT-4 cells
[4] = target: WT HIV-1 RT (Human immunodeficiency virus type 1 group M subtype B, UniProt P03366); experiment: Recombinant HIV-1 RT inhibitory assay; assay type: biochemical
[5] = test system: WT HIV-1 (IIIB); experiment: microbe, parasite or virus in culture; assay type: cell-based; settings: for EC50: Human immunodeficiency virus 1, IIIB, MT4, read-out: EC50 IIIB; for SI IIIB: ratio of CC50/EC50
[6] = test system: HIV-1 Y181C mutant strain; experiment: microbe, parasite or virus in culture; assay type: cell-based; settings: for SI Y181C: CC50/EC50; for EC50: Human immunodeficiency virus 1, MT4, read-out: EC50 Y181C; for RF Y181C: ratio of EC50 (resistant viral strain)/EC50 (wild-type viral strain)
[7] = test system: HIV-1 F227L + V106A double-mutant strain; experiment: microbe, parasite or virus in culture; assay type: cell-based; settings: for SI F227L + V106A: CC50/EC50; for EC50: Human immunodeficiency virus 1, MT4, read-out: EC50 F227L + V106A; for RF F227L + V106A: ratio of EC50 (resistant viral strain)/EC50 (wild-type viral strain)
[8] = test system: HIV-1 L100I mutant strain; experiment: microbe, parasite or virus in culture; assay type: cell-based; settings: for SI L100I: CC50/EC50; for EC50: Human immunodeficiency virus 1, MT4, read-out: EC50 L100I; for RF L100I: ratio of EC50 (resistant viral strain)/EC50 (wild-type viral strain)
[9] = test system: HIV-1 K103N mutant strain; experiment: microbe, parasite or virus in culture; assay type: cell-based; settings: for SI K103N: CC50/EC50; for EC50: Human immunodeficiency virus 1, MT4, read-out: EC50 K103N; for RF K103N: ratio of EC50 (resistant viral strain)/EC50 (wild-type viral strain)
[10] = test system: HIV-1 Y188L mutant strain; experiment: microbe, parasite or virus in culture; assay type: cell-based; settings: for SI Y188L: CC50/EC50; for EC50: Human immunodeficiency virus 1, MT4, read-out: EC50 Y188L; for RF Y188L: ratio of EC50 (resistant viral strain)/EC50 (wild-type viral strain)
[11] = test system: HIV-2 strain (ROD); experiment: Anti-HIV-2; assay type: cell-based; settings: for EC50: Human immunodeficiency virus 2, MT4, read-out: EC50 ROD; for SI ROD: ratio of CC50/EC50

| SMILES | SI E138K [1] | EC50 [1] [nM] | RF E138K [1] | SI RES056 [2] | EC50 [2] [nM] | RF RES056 [2] | CC50 at 5 days [3] [nM] | IC50 [4] [nM] | EC50 [5] [nM] | SI IIIB [5] | SI Y181C [6] | EC50 [6] [nM] | RF Y181C [6] | SI F227L + V106A [7] | EC50 [7] [nM] | RF F227L + V106A [7] | SI L100I [8] | EC50 [8] [nM] | RF L100I [8] | SI K103N [9] | further results |
| --- | --- | --- | --- | --- | --- | --- | --- | --- | --- | --- | --- | --- | --- | --- | --- | --- | --- | --- | --- | --- | --- |
| Cc1cc(-c2ccc(F)cc2)cc(C)c1Oc1nc(NC2CCN(Cc3ccc(S(N)(=O)=O)cc3)CC2)nc2ccsc12 [Compound 23, 4-((4-((4-((4′-Fluoro-3,5-dimethyl-[1,1′-biphenyl]-4-yl)oxy)thieno[3,2-d]pyrimidin-2-yl)amino)piperidin-1-yl)methyl)benzenesulfonamide] | 547 | 30.9 ± 5.26 | 2.7 | 43 | 388 ± 76.2 | 34.3 | 16900 ± 4770 | 211 ± 15 | 11.3 ± 2.07 | 1492 | 377 | 44.8 ± 5.26 | 4.0 | 363 | 46.6 ± 15.5 | 4.1 | 372 | 45.4 ± 5.26 | 4.0 | 1441 | EC50 [9]: 11.7 ± 1.03 nM; RF K103N [9]: 1.0; SI Y188L [10]: 326; EC50 [10]: 51.8 ± 8.47 nM; RF Y188L [10]: 4.6; EC50 [11]: 3280 ± 1260 nM; SI ROD [11]: 5 |
| Cc1cc(-c2cccc(C#N)c2)cc(C)c1Oc1nc(NC2CCN(Cc3ccc(S(N)(=O)=O)cc3)CC2)nc2ccsc12 [Compound 27, 4-((4-((4-((3′-Cyano-3,5-dimethyl-[1,1′-biphenyl]-4-yl)oxy)thieno[3,2-d]pyrimidin-2-yl)amino)piperidin-1-yl)methyl)benzenesulfonamide] | 402 | 34.8 ± 9.28 | 2.6 | 40 | 347 ± 75.9 | 26.1 | 14000 ± 8280 | 207 ± 6 | 13.3 ± 2.6 | 1054 | 432 | 32.4 ± 4.07 | 2.4 | 285 | 49.2 ± 8.26 | 3.7 | 569 | 24.6 ± 4.97 | 1.9 | 1639 | EC50 [9]: 8.56 ± 1.69 nM; RF K103N [9]: 0.6; SI Y188L [10]: 256; EC50 [10]: 54.7 ± 2.26 nM; RF Y188L [10]: 4.1; EC50 [11]: 4920 ± 2250 nM; SI ROD [11]: 3 |
| Cc1cc(-c2ccco2)cc(C)c1Oc1nc(NC2CCN(Cc3ccc(C(N)=O)cc3)CC2)nc2ccsc12 [Compound 12, 4-((4-((4-(4-(Furan-2-yl)-2,6-dimethylphenoxy)thieno[3,2-d]pyrimidin-2-yl)amino)piperidin-1-yl)methyl)benzamide] | 101 | 287 ± 4.98 | 3.1 | 10 | 2900 ± 119 | 31.1 | 28900 ± 15600 | 901 ± 45 | 93.3 ± 82.8 | 310 | 57 | 511 ± 77.2 | 5.5 | 26 | 1110 ± 269 | 11.9 | 70 | 414 ± 37.9 | 4.4 | 224 | EC50 [9]: 129 ± 5.87 nM; RF K103N [9]: 1.4; SI Y188L [10]: 94; EC50 [10]: 307 ± 58.2 nM; RF Y188L [10]: 3.3; EC50 [11]: 25300 nM; SI ROD [11]: 1 |
| Cc1cc(-c2cccs2)cc(C)c1Oc1nc(NC2CCN(Cc3ccc(S(N)(=O)=O)cc3)CC2)nc2ccsc12 [Compound 15, 4-((4-((4-(2,6-Dimethyl-4-(thiophen-2-yl)phenoxy)thieno[3,2-d]pyrimidin-2-yl)amino)piperidin-1-yl)methyl)benzenesulfonamide] | 173 | 124 ± 88.7 | 2.5 | 22 | 999 ± 151 | 20.2 | 21500 ± 890 | 227 ± 46 | 49.5 ± 14.8 | 435 | 235 | 91.7 ± 18.2 | 1.9 | 380 | 56.7 ± 16.2 | 1.1 | 220 | 97.9 ± 62.4 | 2.0 | 932 | EC50 [9]: 23.1 ± 2.56 nM; RF K103N [9]: 0.5; SI Y188L [10]: 203; EC50 [10]: 106 ± 43.6 nM; RF Y188L [10]: 2.1; EC50 [11]: 5110 ± 1710 nM; SI ROD [11]: 4 |
| Cc1cc(-c2ccc(N(C)C)cc2)cc(C)c1Oc1nc(NC2CCN(Cc3ccc(C(N)=O)cc3)CC2)nc2ccsc12 [Compound 30, 4-((4-((4-((4'-(Dimethylamino)-3,5-dimethyl-[1,1′-biphenyl]-4-yl)oxy)thieno[3,2-d]pyrimidin-2-yl)amino)piperidin-1-yl)methyl)benzamide] | 96 | 245 ± 173 | 1.4 | < 1 | > 23500 | > 133 | 23500 ± 380 | 473 ± 59 | 176 ± 26.4 | 134 | 40 | 585 ± 33.3 | 3.3 | 19 | 1250 ± 804 | 7.1 | 21 | 1120 ± 543 | 6.3 | 135 | EC50 [9]: 173 ± 46.3 nM; RF K103N [9]: 1.0; SI Y188L [10]: 42; EC50 [10]: 556 ± 57.4 nM; RF Y188L [10]: 3.2; EC50 [11]: > 23500 nM; SI ROD [11]: <1 |
| COc1ccc(-c2cc(C)c(Oc3nc(NC4CCN(Cc5ccc(S(N)(=O)=O)cc5)CC4)nc4ccsc34)c(C)c2)cc1 [Compound 21, 4-((4-((4-((4′-Methoxy-3,5-dimethyl-[1,1′-biphenyl]-4-yl)oxy)thieno[3,2-d]pyrimidin-2-yl)amino)piperidin-1-yl)methyl)benzenesulfonamide] | 145 | 114 ± 9.2 | 1.9 | 11 | 1560 ± 1280 | 25.6 | 16600 ± 4650 | 268 ± 52 | 61.1 ± 10.3 | 272 | 105 | 157 ± 5.61 | 2.6 | 136 | 122 ± 59.9 | 2.0 | 98 | 169 ± 2.91 | 2.8 | 289 | EC50 [9]: 57.6 ± 0.67 nM; RF K103N [9]: 0.9; SI Y188L [10]: 114; EC50 [10]: 146 ± 44.7 nM; RF Y188L [10]: 2.4; EC50 [11]: > 16600 nM; SI ROD [11]: <1 |
| Cc1cc(-c2ccsc2)cc(C)c1Oc1nc(NC2CCN(Cc3ccc(S(N)(=O)=O)cc3)CC2)nc2ccsc12 [Compound 17, 4-((4-((4-(2,6-Dimethyl-4-(thiophen-3-yl)phenoxy)thieno[3,2-d]pyrimidin-2-yl)amino)piperidin-1-yl)methyl)benzenesulfonamide] | 295 | 52.5 ± 11.3 | 1.7 | 17 | 932 ± 88.4 | 29.5 | 15400 ± 5860 | 167 ± 14 | 31.6 ± 17.7 | 489 | 245 | 63.2 ± 16.1 | 2.0 | 272 | 56.8 ± 3.85 | 1.8 | 203 | 76 ± 17.2 | 2.4 | 865 | EC50 [9]: 17.9 ± 1.51 nM; RF K103N [9]: 0.6; SI Y188L [10]: 249; EC50 [10]: 62 ± 5.83 nM; RF Y188L [10]: 2.0; EC50 [11]: 4800 ± 916 nM; SI ROD [11]: 3 |
| Cc1cc(-c2ccco2)cc(C)c1Oc1nc(NC2CCN(Cc3ccc(S(N)(=O)=O)cc3)CC2)nc2ccsc12 [Compound 11, 4-((4-((4-(4-(Furan-2-yl)-2,6-dimethylphenoxy)thieno[3,2-d]pyrimidin-2-yl)amino)piperidin-1-yl)methyl)benzenesulfonamide] | 271 | 49.9 ± 0.35 | 2.8 | 24 | 565 ± 22.5 | 31.9 | 13500 ± 3940 | 243 ± 37 | 17.7 ± 4.83 | 762 | 213 | 63.5 ± 8.75 | 3.6 | 158 | 85.7 ± 9.71 | 4.8 | 151 | 89.3 ± 23 | 5.0 | 651 | EC50 [9]: 20.7 ± 2.75 nM; RF K103N [9]: 1.2; SI Y188L [10]: 253; EC50 [10]: 53.4 ± 2.15 nM; RF Y188L [10]: 3.0; EC50 [11]: 4150 ± 1780 nM; SI ROD [11]: 3 |

From publication PMC7280082 (Acta Pharmaceutica Sinica. B, 2019)
